Experimental data as given in patent publication US10358434B2, “2-(3-pyridinyl)-1H-benzimidazole derivative compound and medicament containing same” (NIHON MEDI-PHYSICS CO., LTD., priority 2014, dated 2019).

Assays:
[1] = system: human adrenal gland section expressing aldosterone-producing adenoma; experiment: In vitro autoradiography using human adrenal adenoma; type: binding
Summary of the method: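 Frozen 7-μm sections of human adrenal bearing aldosterone-producing adenoma were immersed 10 min in radioligand (5-33 kBq/mL) in PBS with 1% fatty-acid-free BSA, washed, then exposed to imaging plates for 16-20 h. Equal-area ROI PSL in adenoma (B2) versus normal cortex (B1) gave B2/B1, corrected for nuclide half-life, added activity and exposure time.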

[2] = In vivo kinetics experiment (radioactivity distribution); design: species or system Wistar male rat; settings: rat; for Adrenal gland/blood ratio of radioactivity accumulation / Adrenal gland/fat ratio of radioactivity accumulation / Adrenal gland/kidney ratio of radioactivity accumulation / Adrenal gland/liver ratio of radioactivity accumulation / Adrenal gland/muscle ratio of radioactivity accumulation / Adrenal gland/small intestine ratio of radioactivity accumulation / Radioactivity distribution Adrenal gland / Radioactivity distribution Bladder (including urine) / Radioactivity distribution Blood / Radioactivity distribution Fat / Radioactivity distribution Femur / Radioactivity distribution Heart / Radioactivity distribution Kidney / Radioactivity distribution Large intestine / Radioactivity distribution Liver / Radioactivity distribution Lung / Radioactivity distribution Muscle (lower limbs) / Radioactivity distribution Remaining whole body / Radioactivity distribution Small intestine / Radioactivity distribution Spleen / Radioactivity distribution Stomach / Radioactivity distribution Testis / Radioactivity distribution Whole brain: caudal vein
Summary of the method: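 Male Wistar rats (9 weeks) under isoflurane received approximately 1 to 3.7 MBq radiotracer in saline with 1 w/v % ascorbic acid by tail-vein injection. At 10, 30 and 60 min, rats were exsanguinated; blood, organs and remaining body weighed and counted, giving % ID/g and adrenal-to-tissue ratios.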

[3] = Plasma stability evaluation (TLC analysis); type: in vitro ADME; settings: 37° C., 60 minutes
Protocol: Evaluation was made using a heparin-treated normal human plasma pool (Kohjin Bio Co., Ltd.). Compounds [^18F] 100, [^18F] 200, [^123I] 400, [^18F] 500, and [^123I] 601 to 610 obtained by the methods shown in Examples 2, 4, 7, 9, 11, 13, 15, 17, 19, 21, 23, 25, 27, and 29 were each added to the aforementioned human plasma (5 mL), and the obtained mixture was then incubated at 37° C. for 60 minutes. Thereafter, the mixture was centrifuged with addition of methanol, so that a deproteinization treatment was carried out. Thereafter, stability was evaluated by TLC analysis. As TLC analysis conditions, the TLC analysis conditions applied upon the above described synthesis of each compound were applied.

Fc1cc2nc(-c3cncc(Cn4ccnc4)c3)n(CCC[18F])c2cc1Cl [[^18F] 500, 6-Chloro-5-fluoro-1-(3-[^18F]fluoropropyl)-2-[5-(imidazol-1-ylmethyl)pyridin-3-yl]benzimidazole]
accumulation of radioactivity in adrenal gland section (autoradiogram) ([1]; FIGS. 18 to 31): accumulation of radioactivity was selectively observed in a region in which aldosterone-producing adenoma had been pathologically observed | B2/B1 accumulation ratio ([1]; section of FIG. 17(a)): 5.63 | B2 (PSL value, aldosterone-producing adenoma) ([1]; section of FIG. 17(a), site 71a): 3619 | B1 (PSL value, normal adrenal cortex) ([1]; section of FIG. 17(a), site 72a): 643 | accumulation of radioactivity in adrenal gland vs blood and peripheral tissues ([2]; Tables 9 to 22): high accumulation of radioactivity in adrenal gland was observed, in comparison to in blood and peripheral tissues | Adrenal gland/blood ratio of radioactivity accumulation ([2]; 10 min after administration): 158.10 ± 31.05 | Adrenal gland/fat ratio of radioactivity accumulation ([2]; 10 min after administration): 210.51 ± 56.26 | Adrenal gland/kidney ratio of radioactivity accumulation ([2]; 10 min after administration): 14.57 ± 3.27 | Adrenal gland/liver ratio of radioactivity accumulation ([2]; 10 min after administration): 3.45 ± 0.50 | Adrenal gland/muscle ratio of radioactivity accumulation ([2]; 10 min after administration): 74.08 ± 27.27 | Adrenal gland/small intestine ratio of radioactivity accumulation ([2]; 10 min after administration): 13.90 ± 1.21 | Radioactivity distribution Adrenal gland ([2]; 10 min after administration): 18.45 ± 3.39 % ID/g | Radioactivity distribution Bladder (including urine) ([2]; 10 min after administration): 0.86 ± 0.38 % ID/g | Radioactivity distribution Blood ([2]; 10 min after administration): 0.12 ± 0.02 % ID/g | Radioactivity distribution Fat ([2]; 10 min after administration): 0.09 ± 0.02 % ID/g | Radioactivity distribution Femur ([2]; 10 min after administration): 0.25 ± 0.01 % ID/g | Radioactivity distribution Heart ([2]; 10 min after administration): 0.31 ± 0.03 % ID/g | Radioactivity distribution Kidney ([2]; 10 min after administration): 1.28 ± 0.08 % ID/g | Radioactivity distribution Large intestine ([2]; 10 min after administration): 0.23 ± 0.03 % ID/g | Radioactivity distribution Liver ([2]; 10 min after administration): 5.32 ± 0.21 % ID/g | Radioactivity distribution Lung ([2]; 10 min after administration): 0.68 ± 0.08 % ID/g | Radioactivity distribution Muscle (lower limbs) ([2]; 10 min after administration): 0.27 ± 0.08 % ID/g | Radioactivity distribution Remaining whole body ([2]; 10 min after administration): 0.20 ± 0.02 % ID/g | Radioactivity distribution Small intestine ([2]; 10 min after administration): 1.32 ± 0.13 % ID/g | Radioactivity distribution Spleen ([2]; 10 min after administration): 0.93 ± 0.10 % ID/g | Radioactivity distribution Stomach ([2]; 10 min after administration): 0.86 ± 0.06 % ID/g | Radioactivity distribution Testis ([2]; 10 min after administration): 0.06 ± 0.01 % ID/g | Radioactivity distribution Whole brain ([2]; 10 min after administration): 0.02 ± 0.00 % ID/g | Adrenal gland/blood ratio of radioactivity accumulation ([2]; 30 min after administration): 206.39 ± 28.57 | Adrenal gland/fat ratio of radioactivity accumulation ([2]; 30 min after administration): 295.05 ± 101.53 | Adrenal gland/kidney ratio of radioactivity accumulation ([2]; 30 min after administration): 19.08 ± 3.40 | Adrenal gland/liver ratio of radioactivity accumulation ([2]; 30 min after administration): 4.39 ± 0.61 | Adrenal gland/muscle ratio of radioactivity accumulation ([2]; 30 min after administration): 160.44 ± 36.00 | Adrenal gland/small intestine ratio of radioactivity accumulation ([2]; 30 min after administration): 5.99 ± 1.25 | Radioactivity distribution Adrenal gland ([2]; 30 min after administration): 20.88 ± 2.82 % ID/g | Radioactivity distribution Bladder (including urine) ([2]; 30 min after administration): 2.02 ± 1.20 % ID/g | Radioactivity distribution Blood ([2]; 30 min after administration): 0.10 ± 0.01 % ID/g | Radioactivity distribution Fat ([2]; 30 min after administration): 0.07 ± 0.02 % ID/g | Radioactivity distribution Femur ([2]; 30 min after administration): 0.14 ± 0.01 % ID/g | Radioactivity distribution Heart ([2]; 30 min after administration): 0.25 ± 0.02 % ID/g | Radioactivity distribution Kidney ([2]; 30 min after administration): 1.10 ± 0.08 % ID/g | Radioactivity distribution Large intestine ([2]; 30 min after administration): 0.28 ± 0.04 % ID/g | Radioactivity distribution Liver ([2]; 30 min after administration): 4.76 ± 0.15 % ID/g | Radioactivity distribution Lung ([2]; 30 min after administration): 0.44 ± 0.02 % ID/g | Radioactivity distribution Muscle (lower limbs) ([2]; 30 min after administration): 0.13 ± 0.01 % ID/g | Radioactivity distribution Remaining whole body ([2]; 30 min after administration): 0.11 ± 0.01 % ID/g | Radioactivity distribution Small intestine ([2]; 30 min after administration): 3.54 ± 0.51 % ID/g | Radioactivity distribution Spleen ([2]; 30 min after administration): 0.41 ± 0.06 % ID/g | Radioactivity distribution Stomach ([2]; 30 min after administration): 1.11 ± 0.14 % ID/g | Radioactivity distribution Testis ([2]; 30 min after administration): 0.08 ± 0.01 % ID/g | Radioactivity distribution Whole brain ([2]; 30 min after administration): 0.01 ± 0.00 % ID/g | Adrenal gland/blood ratio of radioactivity accumulation ([2]; 60 min after administration): 214.22 ± 75.71 | Adrenal gland/fat ratio of radioactivity accumulation ([2]; 60 min after administration): 371.37 ± 112.38 | Adrenal gland/kidney ratio of radioactivity accumulation ([2]; 60 min after administration): 17.62 ± 3.44 | Adrenal gland/liver ratio of radioactivity accumulation ([2]; 60 min after administration): 7.45 ± 2.80 | Adrenal gland/muscle ratio of radioactivity accumulation ([2]; 60 min after administration): 210.35 ± 70.86 | Adrenal gland/small intestine ratio of radioactivity accumulation ([2]; 60 min after administration): 4.17 ± 1.22 | Radioactivity distribution Adrenal gland ([2]; 60 min after administration): 21.41 ± 4.42 % ID/g | Radioactivity distribution Bladder (including urine) ([2]; 60 min after administration): 3.87 ± 0.37 % ID/g | Radioactivity distribution Blood ([2]; 60 min after administration): 0.10 ± 0.02 % ID/g | Radioactivity distribution Fat ([2]; 60 min after administration): 0.06 ± 0.02 % ID/g | Radioactivity distribution Femur ([2]; 60 min after administration): 0.12 ± 0.03 % ID/g | Radioactivity distribution Heart ([2]; 60 min after administration): 0.24 ± 0.04 % ID/g | Radioactivity distribution Kidney ([2]; 60 min after administration): 1.23 ± 0.22 % ID/g | Radioactivity distribution Large intestine ([2]; 60 min after administration): 0.41 ± 0.09 % ID/g | Radioactivity distribution Liver ([2]; 60 min after administration): 3.08 ± 0.99 % ID/g | Radioactivity distribution Lung ([2]; 60 min after administration): 0.48 ± 0.04 % ID/g | Radioactivity distribution Muscle (lower limbs) ([2]; 60 min after administration): 0.11 ± 0.03 % ID/g | Radioactivity distribution Remaining whole body ([2]; 60 min after administration): 0.10 ± 0.02 % ID/g | Radioactivity distribution Small intestine ([2]; 60 min after administration): 5.36 ± 1.39 % ID/g | Radioactivity distribution Spleen ([2]; 60 min after administration): 0.32 ± 0.09 % ID/g | Radioactivity distribution Stomach ([2]; 60 min after administration): 1.66 ± 0.45 % ID/g | Radioactivity distribution Testis ([2]; 60 min after administration): 0.11 ± 0.03 % ID/g | Radioactivity distribution Whole brain ([2]; 60 min after administration): 0.02 ± 0.00 % ID/g | stability in human plasma [3]: hardly metabolized and decomposed in the plasma | Radiochemical purity after incubation in human plasma ([3]; TLC analysis): 88%
